Laboratory results as given in patent publication US9527807B2, “Sulfonamide derivative and use thereof” (Takeda Pharmaceutical Company Limited, priority 2011, dated 2016).

Target: T1, AMPA receptor (human GluR1 flip/stargazin expressed in CHO-K1 cells) (Homo sapiens, UniProt P42261)
T1 construct: expressed in transfected cells; host or cells: CHO-K1
Test: AMPA receptor function enhancing activity using calcium influx as index
Format: cell-based
Details: change in fluorescence level in 3 min, 100% = 3 mM glutamic acid + 300 μM cyclothiazide, 0% = 3 mM glutamic acid only
Text: Human GluR1 flip cDNA was amplified by PCR using forward primer […] (SEQ ID NO: 1) and reverse primer […] (SEQ ID NO: 2) artificially synthesized using human brain-derived cDNA (BD Bio science) as a template. The amplified product was digested with restriction enzymes EcoRI, NotI (TAKARA SHUZO CO. LTD.), and incorporated into the same site of pcDNA3.1(+) (Invitrogen) to construct pcDNA3.1(+)/human GluR1 flip gene. Human stargazin cDNA was amplified by PCR using forward primer […] (SEQ ID NO: 3) and reverse primer. […] (SEQ ID NO: 4) artificially synthesized using human hippocampus cDNA as a template. The amplified product was digested with restriction enzymes XhoI, BamHI (TAKARA SHUZO CO. LTD.), and incorporated into the same site of pcDNA3.1(−) (Invitrogen) to construct pcDNA3.1 Zeo(−)/human stargazin gene.
(2) Construction of GluR1 Flip/Stargazin Expressing Cell
CHO-K1 cells passaged in a culture medium (Ham's F12 medium (Invitrogen) added with 10% inactivated fetal bovine serum (Morgate) and penicillin, streptomycin (Invitrogen)) were detached with 0.05% trypsin, 0.53 mM EDTA (Invitrogen) diluted with D-PBS(−). The detached cells were suspended in a culture medium, and recovered by a centrifugation operation at 1,000 rpm. The recovered cells were suspended again in D-PBS(−), and added to a 0.4 cm electroporation cuvette (BioRad). pcDNA3.1(+)/human GluR1 flip gene (5 μg) and pcDNA3.1 Zeo(−)/human stargazin gene (15 μg) were added, and the mixture was introduced into CHO-K1 cells using Gene Pulser II (BioRad) under the conditions of 950 μFd, […]. The introduced cells were cultured overnight in a culture medium and, the next day, plated in a 96 well plate at 250 cells/well using a selection medium (culture medium added with Zeocin (Invitrogen) to 250 μg/mL). Clones showing drug resistance were selected, and GluR1 flip/stargazin expressing clones were selected by an assay method using calcium influx as an index as shown below.
(3) Measurement Method of AMPA Receptor Function Enhancing Activity of Compound Using Calcium Influx as Index
CHO-K1/GluR1 flip/stargazin expressing cells were plated on a 384 well black transparent bottom plate (FMAT4307723) at 0.5×10^4 cells/well, and cultured in a 37° C., CO2 incubator (SANYO Electric Co., Ltd.) for 2 days. The medium in the cell plate was removed, and a calcium indicator (Calcium 4 Assay Kit, Molecular. Devices) containing 1.25 mM probenecid (Invitrogen) was added at 25 μL/well and the well was left standing in 37° C., CO2 incubator for 1 hr. The cell plate was set in FLITRtetra (Molecular Devices), a mixture (12.5 μL) of 9 mM glutamic acid diluted with assay buffer B (HBSS (Invitrogen), 0.1% BSA, 10 mM HEPES) and a test compound was added, and the amount of change in fluorescence level in 3 min was measured. In the definition here, the amount of change in fluorescence level of well added with glutamic acid at final concentration 3 mM and 300 μM cyclothiazide (TOCRIS) is 100%, the amount of change in fluorescence level of well added only with glutamic acid at final concentration 3 mM is 0%, and the compound activity was calculated according to the following formula. activity (%)=(X−C)/(T−C)×100 T: amount of change in fluorescence level of well added with glutamic acid at final concentration 3 mM and 300 μM cyclothiazide C: amount of change in fluorescence level of well added only with glutamic acid at final concentration 3 mM X: amount of change in fluorescence level of well added with to test compound

T1 sequence (P42261 19-906 isoform P42261-2 limits assumed): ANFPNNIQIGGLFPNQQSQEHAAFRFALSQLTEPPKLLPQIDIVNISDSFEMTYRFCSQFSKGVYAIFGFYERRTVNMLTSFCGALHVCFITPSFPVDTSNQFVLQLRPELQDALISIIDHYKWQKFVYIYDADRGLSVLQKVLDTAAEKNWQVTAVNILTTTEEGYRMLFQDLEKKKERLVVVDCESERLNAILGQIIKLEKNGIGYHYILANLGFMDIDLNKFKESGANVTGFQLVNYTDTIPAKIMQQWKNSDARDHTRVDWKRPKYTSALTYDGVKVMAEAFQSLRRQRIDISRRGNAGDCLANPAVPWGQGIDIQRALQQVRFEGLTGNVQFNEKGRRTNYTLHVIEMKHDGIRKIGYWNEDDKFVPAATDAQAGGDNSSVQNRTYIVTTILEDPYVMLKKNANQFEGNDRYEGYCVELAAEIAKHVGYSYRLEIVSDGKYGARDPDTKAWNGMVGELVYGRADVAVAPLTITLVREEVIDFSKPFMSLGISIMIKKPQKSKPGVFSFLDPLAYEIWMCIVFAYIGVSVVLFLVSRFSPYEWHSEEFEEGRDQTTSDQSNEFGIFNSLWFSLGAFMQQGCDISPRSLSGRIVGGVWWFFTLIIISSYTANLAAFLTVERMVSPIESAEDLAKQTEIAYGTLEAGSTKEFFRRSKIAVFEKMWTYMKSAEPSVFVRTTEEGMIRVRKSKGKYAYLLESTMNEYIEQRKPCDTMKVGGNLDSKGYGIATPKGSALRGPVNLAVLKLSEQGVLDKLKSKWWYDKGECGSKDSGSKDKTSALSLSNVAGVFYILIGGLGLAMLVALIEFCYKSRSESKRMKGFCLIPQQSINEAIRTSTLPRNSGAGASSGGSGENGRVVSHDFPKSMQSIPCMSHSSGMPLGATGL
T1 sequence (Q9Y698 whole entry partner): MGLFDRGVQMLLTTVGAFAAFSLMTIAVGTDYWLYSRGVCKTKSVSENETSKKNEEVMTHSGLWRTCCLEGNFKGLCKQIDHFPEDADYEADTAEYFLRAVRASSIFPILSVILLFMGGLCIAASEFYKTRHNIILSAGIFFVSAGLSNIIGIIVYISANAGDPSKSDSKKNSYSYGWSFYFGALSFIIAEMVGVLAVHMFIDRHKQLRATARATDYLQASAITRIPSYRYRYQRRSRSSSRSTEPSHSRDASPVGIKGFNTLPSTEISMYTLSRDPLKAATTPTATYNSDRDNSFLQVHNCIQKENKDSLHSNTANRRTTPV

activity (%) | Structure (SMILES)
91 | CCS(=O)(=O)N[C@H]1CCOC[C@@H]1COc1ccc(C2CC2)cc1 (relative stereo) [Example 7, trans-N-{3-[(4-cyclopropylphenoxy)methyl]tetrahydro-2H-pyran-4-yl}ethanesulfonamide]
79 | CCS(=O)(=O)N[C@H]1CCCC[C@@H]1COc1ccc(C(C)C)cc1 (relative stereo) [Example 8, trans-N-[2-{[4-(1-methylethyl)phenoxy]methyl}cyclohexyl]ethanesulfonamide]
72 | O=S(=O)(N[C@@H]1CCCC[C@H]1COc1ccc(C2CC2)cc1)C1CC1 (relative stereo) [Example 12, trans-N-[2-[(4-cyclopropylphenoxy)methyl]cyclohexyl]cyclopropanesulfonamide]
88 | CCS(=O)(=O)N[C@H]1CCC[C@@H]1COc1ccc(C(C)C)cc1 (relative stereo) [Example 15, trans-N-[2-{[4-(1-methylethyl)phenoxy]methyl}cyclopentyl]ethanesulfonamide]
82 | CC(C)S(=O)(=O)N[C@H]1CCCC[C@@H]1COc1ccc(C2CC2)cc1 (relative stereo) [Example 21, trans-N-{2-[(4-cyclopropylphenoxy)methyl]cyclohexyl}propane-2-sulfonamide]
86 | CCS(=O)(=O)N[C@H]1CCCC[C@@H]1COc1ccc(C2COC2)cc1 (relative stereo) [Example 43, trans-N-{2-[(4-oxetan-3-ylphenoxy)methyl]cyclohexyl}ethanesulfonamide]
78 | CCS(=O)(=O)N[C@@H]1CCCC[C@H]1COc1ccc(CCC#N)cc1 (relative stereo) [Example 50, trans-N-[2-{[4-(2-cyanoethyl)phenoxy]methyl}cyclohexyl] ethanesulfonamide]
69 | CCS(=O)(=O)N[C@H]1CCCC[C@@H]1COc1ccc(OC(F)F)cc1 (relative stereo) [Example 52, trans-N-[2-{[4-(difluoromethoxy)phenoxy]methyl}cyclo-hexyl]ethanesulfonamide]
80 | CCS(=O)(=O)N[C@H]1CCCC[C@@H]1COc1ccc(-n2cccn2)cc1 (relative stereo) [Example 60, trans-N-[2-{[4-(1H-pyrazol-1-yl)phenoxy]methyl}cyclohexyl]ethane-sulfonamide]
75 | CCS(=O)(=O)N[C@H]1CCCC[C@@H]1COc1ccc(C(C)=O)cc1 (relative stereo) [Example 89, trans-N-{2-[(4-acetylphenoxy)methyl]cyclohexyl}ethane-sulfonamide]

The next lines start with the compound.

Structure (SMILES) | activity (%)
CCS(=O)(=O)N[C@H]1CCN(C(C)=O)C[C@@H]1COc1ccc(-n2cccn2)cc1 (relative stereo) [Example 3, trans-N-[1-acetyl-3-{[4-(1H-pyrazol-1-yl)phenoxy]methyl}piperidin-4-yl]ethanesulfonamide] | 57
CCS(=O)(=O)N[C@H]1CCOC[C@@H]1COc1ccc(C(C)C)cc1 (relative stereo) [Example 34, trans-N-{3-[(4-isopropylphenoxy)methyl]tetrahydro-2H-pyran-4-yl}ethanesulfonamide] | 77
CCS(=O)(=O)N[C@H]1CCC(=O)C[C@@H]1COc1ccc(C(C)C)cc1 (relative stereo) [Example 39, trans-N-[2-{[4-(1-methylethyl)phenoxy]methyl}-4-oxocyclohexyl]ethanesulfonamide] | 81
CCS(=O)(=O)N[C@H]1COCC[C@@H]1COc1ccc(C(C)C)cc1 (relative stereo) [Example 95, trans-N-[4-{[4-(1-methylethyl)phenoxy]methyl}tetrahydro-2H-pyran-3-yl]ethanesulfonamide] | 73
CCS(=O)(=O)N[C@H]1CCC(F)(F)C[C@@H]1COc1ccc(-n2cccn2)cc1 (relative stereo) [Example 130, trans-N-[4,4-difluoro-2-{[4-(1H-pyrazol-1-yl)phenoxy]methyl}cyclohexyl]ethanesulfonamide] | 90
CCS(=O)(=O)N[C@H]1CCOC[C@@H]1COc1ccc(C(C)=O)c(F)c1 (relative stereo) [Example 131, trans-N-{3-[(4-acetyl-3-fluorophenoxy)methyl]tetrahydro-2H-pyran-4-yl}ethanesulfonamide] | 89
CCS(=O)(=O)N[C@H]1CCOC[C@@H]1COc1ccc(-n2cc(C)cn2)cc1 (relative stereo) [Example 134, trans-N-[3-{[4-(4-methyl-1H-pyrazol-1-yl)phenoxy]methyl}tetrahydro-2H-pyran-4-yl]ethanesulfonamide] | 92
CCS(=O)(=O)N[C@H]1CCOC[C@@H]1COc1ccc(C(C)=O)cc1 (relative stereo) [Example 135, trans-N-{3-[(4-acetylphenoxy)methyl]tetrahydro-2H-pyran-4-yl}ethanesulfonamide] | 88
CCS(=O)(=O)N[C@H]1CCOC[C@@H]1COc1ccc(C(C)=O)cc1F (relative stereo) [Example 136, trans-N-{3-[(4-acetyl-2-fluorophenoxy)methyl]tetrahydro-2H-pyran-4-yl}ethanesulfonamide] | 85
CCS(=O)(=O)N[C@H]1CCOC[C@@H]1COc1ccc(-c2ccccn2)cc1 (relative stereo) [Example 137, trans-N-{3-[(4-pyridin-2-ylphenoxy)methyl]tetrahydro-2H-pyran-4-yl}ethanesulfonamide] | 91
CCS(=O)(=O)N[C@H]1CCOC[C@@H]1COc1ccc(-c2cccnc2)cc1 (relative stereo) [Example 138, trans-N-{3-[(4-pyridin-3-ylphenoxy)methyl]tetrahydro-2H-pyran-4-yl}ethanesulfonamide] | 95
CCS(=O)(=O)N[C@H]1CCOC[C@@H]1COc1ccc(-n2cnc(C)c2)cc1 (relative stereo) [Example 139, trans-N-[3-{[4-(4-methyl-1H-imidazol-1-yl)phenoxy]methyl}tetrahydro-2H-pyran-4-yl]ethanesulfonamide] | 97
CCS(=O)(=O)N[C@H]1CCOC[C@@H]1COc1ccc(-n2cc(Cl)cn2)cc1 (relative stereo) [Example 140, trans-N-[3-{[4-(4-chloro-1H-pyrazol-1-yl)phenoxy]methyl}tetrahydro-2H-pyran-4-yl]ethanesulfonamide] | 90
CCS(=O)(=O)N[C@H]1CCC(F)(F)C[C@@H]1COc1ccc(-n2cc(C)cn2)cc1 (relative stereo) [Example 141, trans-N-[4,4-difluoro-2-{[4-(4-methyl-1H-pyrazol-1-yl)phenoxy]methyl}cyclohexyl]ethanesulfonamide] | 78
CCS(=O)(=O)N[C@H]1CCC(F)(F)C[C@@H]1COc1ccc(-n2ccc(C)n2)cc1 (relative stereo) [Example 142, trans-N-[4,4-difluoro-2-{[4-(3-methyl-1H-pyrazol-1-yl)phenoxy]methyl}cyclohexyl]ethanesulfonamide] | 54
CCS(=O)(=O)N[C@H]1CCC(F)(F)C[C@@H]1COc1ccc(-n2nccc2C)cc1 (relative stereo) [Example 143, trans-N-[4,4-difluoro-2-{[4-(5-methyl-1H-pyrazol-1-yl)phenoxy]methyl}cyclohexyl]ethanesulfonamide] | 42
CCS(=O)(=O)N[C@H]1CCOC[C@@H]1COc1ccc(-n2cccn2)cc1 (single isomer, unassigned) [Example 6, trans-N-[3-{[4-(1H-pyrazol-1-yl)phenoxy]methyl}tetrahydro-2H-pyran-4-yl]ethanesulfonamide] | 82
